Target: T1, human NaV1.8 (Homo sapiens, UniProt Q9Y5Y9)
T1 construct: expressed in transfected cells
Test: Nav1.8 Qube® Assay (automated 384-well patch-clamp, inhibition of sodium current)
Format: cell-based
Settings: human NaV1.8 channels stably expressed in HEK 293 cells, room temperature
Summary of the method: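 Whole-cell voltage clamp at room temperature in HEK293 cells stably expressing NaV1.8; from −90 mV hold, 10 s 1 Hz train of 20 ms pulses to 10 mV with 980 ms repolarization to −67 mV. Peak currents of 1st and 10th pulses give resting and inactivated-state IC50s, Hill fit.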

T1 sequence (Q9Y5Y9 whole entry): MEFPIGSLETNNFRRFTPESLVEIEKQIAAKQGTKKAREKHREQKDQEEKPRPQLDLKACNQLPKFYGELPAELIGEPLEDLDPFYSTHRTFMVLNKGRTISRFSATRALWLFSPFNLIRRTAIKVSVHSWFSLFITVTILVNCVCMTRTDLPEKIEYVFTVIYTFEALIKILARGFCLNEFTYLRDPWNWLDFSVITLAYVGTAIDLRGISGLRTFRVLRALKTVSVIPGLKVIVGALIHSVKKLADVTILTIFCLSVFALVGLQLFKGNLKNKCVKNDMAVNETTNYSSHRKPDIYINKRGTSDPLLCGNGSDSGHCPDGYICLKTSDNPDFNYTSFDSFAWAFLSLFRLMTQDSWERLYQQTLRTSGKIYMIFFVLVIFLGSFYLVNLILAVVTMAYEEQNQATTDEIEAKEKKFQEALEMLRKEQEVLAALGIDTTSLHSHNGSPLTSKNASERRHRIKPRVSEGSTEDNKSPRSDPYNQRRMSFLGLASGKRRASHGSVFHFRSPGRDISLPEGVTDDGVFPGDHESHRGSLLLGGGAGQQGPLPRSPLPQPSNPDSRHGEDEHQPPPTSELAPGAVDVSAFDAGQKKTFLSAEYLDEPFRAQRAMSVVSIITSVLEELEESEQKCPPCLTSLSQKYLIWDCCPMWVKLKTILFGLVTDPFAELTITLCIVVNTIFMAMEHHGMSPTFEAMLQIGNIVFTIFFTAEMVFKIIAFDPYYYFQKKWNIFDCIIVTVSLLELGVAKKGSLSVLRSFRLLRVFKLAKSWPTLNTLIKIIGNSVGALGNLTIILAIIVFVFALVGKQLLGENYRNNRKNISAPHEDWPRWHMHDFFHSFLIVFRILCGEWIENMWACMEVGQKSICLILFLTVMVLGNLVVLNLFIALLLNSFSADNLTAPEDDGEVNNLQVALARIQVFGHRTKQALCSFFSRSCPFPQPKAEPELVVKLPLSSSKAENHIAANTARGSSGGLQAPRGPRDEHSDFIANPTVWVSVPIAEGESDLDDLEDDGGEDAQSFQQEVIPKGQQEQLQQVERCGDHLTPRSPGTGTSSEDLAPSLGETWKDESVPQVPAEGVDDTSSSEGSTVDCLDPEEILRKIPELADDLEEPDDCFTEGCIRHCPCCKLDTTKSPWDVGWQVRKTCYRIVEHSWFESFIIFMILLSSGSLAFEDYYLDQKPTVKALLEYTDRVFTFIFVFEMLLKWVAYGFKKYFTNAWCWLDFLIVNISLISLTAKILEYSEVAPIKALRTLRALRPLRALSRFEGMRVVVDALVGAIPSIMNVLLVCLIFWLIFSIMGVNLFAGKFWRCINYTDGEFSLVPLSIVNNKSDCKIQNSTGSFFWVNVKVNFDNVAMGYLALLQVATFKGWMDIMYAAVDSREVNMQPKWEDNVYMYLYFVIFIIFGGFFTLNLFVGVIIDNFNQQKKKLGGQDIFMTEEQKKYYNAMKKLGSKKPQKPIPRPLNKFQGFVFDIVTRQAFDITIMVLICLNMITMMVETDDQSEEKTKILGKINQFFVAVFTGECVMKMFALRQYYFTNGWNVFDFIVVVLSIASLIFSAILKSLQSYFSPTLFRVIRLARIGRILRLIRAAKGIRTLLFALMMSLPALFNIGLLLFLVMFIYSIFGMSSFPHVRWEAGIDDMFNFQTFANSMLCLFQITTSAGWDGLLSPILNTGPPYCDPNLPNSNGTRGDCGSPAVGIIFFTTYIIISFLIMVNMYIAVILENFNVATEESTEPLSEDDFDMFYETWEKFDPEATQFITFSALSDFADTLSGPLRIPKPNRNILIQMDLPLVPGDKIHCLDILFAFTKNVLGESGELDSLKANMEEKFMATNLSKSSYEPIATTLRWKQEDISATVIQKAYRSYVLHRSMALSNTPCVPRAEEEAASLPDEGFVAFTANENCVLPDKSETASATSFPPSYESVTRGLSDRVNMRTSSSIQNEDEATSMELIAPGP

How did the IC50 turn out when C[C@@H]1C(=O)NCCN1C(=O)NC(C)(c1ccc(F)c(Cl)c1)C1CC(C(F)(F)F)C1 (single isomer, unassigned) [Example 48A, (2R)—N—((R or S)-1-(3-chloro-4-fluorophenyl)-1-(cis-3-(trifluoromethyl)cyclobutyl)ethyl)-2-methyl-3-oxopiperazine-1-carboxamide] was run?
The IC50 was 4370 nM.

How did the IC50 turn out when C[C@@H]1C(=O)NCCN1C(=O)N[C@H](c1ccc(F)c(Cl)c1)C1CCC(C(F)(F)F)CC1 (single isomer, unassigned) [Example 5A, (2R)-N-((R or S)-(3-chloro-4-fluoro-phenyl)(trans-4-(trifluoromethyl)cyclo-hexyl)methyl)-2-methyl-3-oxo-piperazine-1-carboxamide] was run?
The IC50 was 40.9 nM.

Which IC50 does the source give for C[C@@H]1C(=O)NCCN1C(=O)NC(c1ccc(Cl)c(C(F)F)c1)C1CCC(C(F)(F)F)CC1 (single isomer, unassigned) [Example 37C, (2R)-N-((S or R)-(4-chloro-3-(difluoro-methyl)phenyl)(cis-4-(trifluoromethyl)cyclohexyl)methyl)-2-methyl-3-oxopiperazine-1-carboxamide] here?
Its IC50 is 27.2 nM.

For C[C@@H]1C(=O)NCCN1C(=O)NC(c1ccc(F)c(Cl)c1F)C1CC2(C1)CC2(F)F (single isomer, unassigned) [Example 22D, (2R)-N-((So or R)-(3-chloro-2,4-difluoro-phenyl)(cis or trans-1,1-difluoro-spiro[2.3]-hexan-5-yl)methyl)-2-methyl-3-oxopiperazine-1-carboxamide], which IC50 is on record?
Its IC50 is 85.2 nM.

With O=C1CN(C(=O)NC(c2ccc(F)c(Cl)c2F)[C@H]2CC[C@H](C(F)(F)F)CC2)CCN1 (single isomer, unassigned) [Example 10A, N-((R or S)-(3-chloro-2,4-difluoro-phenyl)(trans-4-(trifluoromethyl)cyclo-hexyl)methyl)-3-oxopiperazine-1-carboxamide] as the compound, how does the IC50 read?
The IC50 was 311 nM.

Which IC50 does the source give for O=C1CN(C(=O)NC(c2ccc(F)c(Cl)c2)C2CC3CCC(C2)C3(F)F)CCN1 (single isomer, unassigned) [Example 2B, N-((S or R)-(3-chloro-4-fluoro-phenyl)(8,8-difluroo-bicyclo[3.2.1]octan-3-yl)methyl)-3-oxopiperazine-1-carboxamide] here?
Its IC50 is 410 nM.

For C[C@@H]1C(=O)NCCN1C(=O)NC(c1ccc(F)c(Cl)c1F)C1CC2(CC2)C1 (single isomer, unassigned) [Example 28B, (2R)—N—((S or R)-(3-chloro-2,4-difluorophenyl)(spiro[2.3]hexan-5-yl)methyl)-2-methyl-3-oxopiperazine-1-carboxamide], which IC50 is on record?
Its IC50 is 191 nM.

For C[C@@H]1C(=O)NCCN1C(=O)NC(c1ccc(F)c(Cl)c1F)C1CC(C(F)(F)F)C1 (single isomer, unassigned) [Example 20A], which IC50 is on record?
The IC50 was 1.37 nM.

Which IC50 does the source give for C[C@@H]1C(=O)NCCN1C(=O)NC(c1ccc(F)c(Cl)c1)C1CCC2(CC1)CC2(F)F (single isomer, unassigned) [Example 19A] here?
The IC50 was 5.75 nM.

C[C@@H]1C(=O)NCCN1C(=O)NC(c1ccc(F)c(C(F)(F)F)c1)[C@H]1C[C@H](C(F)(F)F)C1 (single isomer, unassigned) [Example 51A, (2R)-N-((R or S)-(4-fluoro-3-(trifluoro-methyl)phenyl)(trans-3-(trifluoro-methyl)-cyclo-butyl)methyl)-2-methyl-3-oxo-piperazine-1-carboxamide] was tested. Which IC50 did it give?
The IC50 was 117 nM.

With C[C@@H]1C(=O)NCCN1C(=O)NC(c1ccc(F)c(Cl)c1)C1CC(OC(F)F)C1 (single isomer, unassigned) [Example 38B, (2R)-N-((R or S)-(3-chloro-4-fluorophenyl) (cis-3-(difluoromethoxy)cyclobutyl)methyl)-2-methyl-3-oxopiperazine-1-carboxamide] as the compound, how does the IC50 read?
Its IC50 is 158 nM.

How did the IC50 turn out when C[C@@H]1C(=O)NCCN1C(=O)NC(c1ccc(F)c(Cl)c1)C12CC(C(F)(F)F)(C1)C2 (single isomer, unassigned) [Example 35B, (2R)-N-((S or R)-(3-chloro-4-fluoro-phenyl)(3-(trifluoro-methyl)bicyclo[1.1.1]pen-tan-1-yl)methyl)-2-methyl-3-oxopiperazine-1-carboxamide] was run?
Its IC50 is 48.6 nM.

For [2H]C1([2H])NC(=O)C(C)N(C(=O)N[C@H](c2ccc(F)c(Cl)c2F)[C@H]2C[C@H](C(F)(F)F)C2)C1([2H])[2H] (single isomer, unassigned) [Example 59B, (S or R)—N—((S)-(3-chloro-2,4-difluorophenyl)((trans)-3-(trifluoromethyl)cyclobutyl)methyl)-2-methyl-3-oxopiperazine-5,5,6,6-d4-1-carboxamide], which IC50 is on record?
Its IC50 is 44 nM.

Which IC50 does the source give for C[C@@H]1C(=O)NCCN1C(=O)NC(c1ccc(F)c(C(F)(F)F)c1)C1CCC(C(F)(F)F)OC1 (single isomer, unassigned) [Example 60B, (2R)—N-((1(R or S))-(4-fluoro-3-(trifluoromethyl)phenyl)-trans-(6-(trifluoromethyl)tetrahydro-2H-pyran-3-yl)methyl)-2-methyl-3-oxopiperazine-1-carboxamide] here?
Its IC50 is 51.2 nM.

How did the IC50 turn out when C[C@@H]1C(=O)NCCN1C(=O)NC(c1ccc(F)c(Cl)c1F)[C@H]1C[C@@H]1C(F)(F)F (single isomer, unassigned) [Example 57D] was run?
Its IC50 is 12 nM.

How did the IC50 turn out when C[C@@H]1C(=O)NCCN1C(=O)NC(c1ccc(F)c(Cl)c1)[C@@H]1C[C@@H]2[C@H](C1)C2(F)F (single isomer, unassigned) [Example 7B, (2R)-N-((S or R)-(3-chloro-4-fluoro-phenyl)((1R,3s,5S)-6,6-difluoro-bicyclo[3.1.0]hexan-3-yl)methyl)-2-methyl-3-oxo-piperazine-1-carboxamide] was run?
The IC50 was 11.7 nM.

C[C@@H]1C(=O)NCCN1C(=O)NC(c1ccc(OC(F)(F)F)cc1F)[C@H]1C[C@H](C(F)(F)F)C1 (single isomer, unassigned) [Example 50B, (2R)-N-((S or R)-(2-fluoro-4-(trifluoro-methoxy)phenyl)(trans-3-(trifluoro-methyl)-cyclobutyl)-methyl)-2-methyl-3-oxopiperazine-1-carboxamide] was tested. Which IC50 did it give?
The IC50 was 9.01 nM.

For CC(N1CCC(C(NC(=O)N2CCNC(=O)[C@H]2C)c2ccc(F)c(Cl)c2)CC1)C(F)(F)F (single isomer, unassigned) [Example 18B], which IC50 is on record?
The IC50 was 6.87 nM.

O=C1CN(C(=O)N[C@H](c2ccc(Cl)cc2)C2CCC(C(F)(F)F)CC2)CCN1 (single isomer, unassigned) [Example 4A, N-((R or S)-(4-chlorophenyl)(trans-4-(trifluoromethyl)-cyclohexyl)methyl)-3-oxopiperazine-1-carboxamide] was tested. Which IC50 did it give?
The IC50 was 89.3 nM.

Which IC50 does the source give for C[C@@H]1C(=O)NCCN1C(=O)NC(c1ccc(F)c(Cl)c1)C1CC(C(F)(F)F)C1 (single isomer, unassigned) [Example 43B, (2R)-N-((R or S)-(3-chloro-4-fluorophenyl)-(cis-3-(trifluoromethyl)-cyclobutyl)methyl)-2-methyl-3-oxopiperazine-1-carboxamide] here?
The IC50 was 26.4 nM.

Which IC50 does the source give for C[C@@H]1C(=O)NCCN1C(=O)NC(c1ccc(F)c(Cl)c1F)C1COc2ccccc2C1 (single isomer, unassigned) [Example 62A, (R)—N—((R or S)-(3-chloro-2,4-difluorophenyl)((R or S)-chroman-3-yl)methyl)-2-methyl-3-oxopiperazine-1-carboxamide] here?
The IC50 was 3.2 nM.

C[C@@H]1C(=O)NCCN1C(=O)NC(c1ccc(F)c(Cl)c1)C12CC(C(F)(F)F)(C1)C2 (single isomer, unassigned) [Example 35A, (2R)-N-((R or S)-(3-chloro-4-fluoro-phenyl)(3-(trifluoro-methyl)bicyclo[1.1.1]pen-tan-1-yl)methyl)-2-methyl-3-oxopiperazine-1-carboxamide] was tested. Which IC50 did it give?
The IC50 was 6.08 nM.

With C[C@@H]1C(=O)NCCN1C(=O)NC(c1ccc(F)c(Cl)c1F)C1CC12CC2 (single isomer, unassigned) [Example 41A, (2R)-N-((R or S)-(3-chloro-2,4-difluoro-phenyl)((R or S)-spiro[2.2]pentan-1-yl)methyl)-2-methyl-3-oxopiperazine-1-carboxamide] as the compound, how does the IC50 read?
Its IC50 is 31.6 nM.

How did the IC50 turn out when C[C@@H]1C(=O)NCCN1C(=O)NC(C)(c1ccc(F)c(Cl)c1)C1CC(C(F)(F)F)C1 (single isomer, unassigned) [Example 48D, (2R)—N—((S or R)-1-(3-chloro-4-fluorophenyl)-1-(trans-3-(trifluoromethyl)cyclobutyl)ethyl)-2-methyl-3-oxopiperazine-1-carboxamide] was run?
The IC50 was 515 nM.

For C[C@@H]1C(=O)NCCN1C(=O)NC(c1ccc(Cl)c(C(F)F)c1)C1CCC(C(F)(F)F)CC1 (single isomer, unassigned) [Example 37B, (2R)-N-((R or S)-(4-chloro-3-(difluoro-methyl)phenyl)(trans-4-(trifluoromethyl)cyclohexyl)methyl)-2-methyl-3-oxopiperazine-1-carboxamide], which IC50 is on record?
Its IC50 is 145 nM.

For C[C@@H]1C(=O)NCCN1C(=O)NC(c1ccc(F)c(Cl)c1F)[C@@H]1C[C@@H]2[C@H](C1)C2(F)F (single isomer, unassigned) [Example 11A, (R)-N-((R or S)-(3-chloro-2,4-difluoro-phenyl)((1R,3s,5S)-6,6-difluoro-bicyclo[3.1.0]hexan-3-yl)methyl)-2-methyl-3-oxo-piperazine-1-carboxamide], which IC50 is on record?
Its IC50 is 870 nM.

O=C1CN(C(=O)NC(c2ccc(Cl)c(C(F)(F)F)n2)C2CCC(C(F)(F)F)CC2)CCN1 (single isomer, unassigned) [Example 45B] was tested. Which IC50 did it give?
Its IC50 is 5.27 nM.

How did the IC50 turn out when C[C@@H]1C(=O)NCCN1C(=O)NC(c1ccc(F)c(Cl)c1F)C1CC2(C1)CC(F)(F)C2 (single isomer, unassigned) [Example 23, (2R)-N-((R or S)-(3-chloro-2,4-difluoro-phenyl)(6,6-difluoro-spiro[3.3]heptan-2-yl)methyl)-2-methyl-3-oxopiperazine-1-carboxamide] was run?
The IC50 was 1.16 nM.

Source: patent publication US20220380338A1, “CYCLOALKYL 3-OXOPIPERAZINE CARBOXAMIDES AND CYCLOHETEROALKYL 3-OXOPIPERAZINE CARBOXAMIDES AS NAV1.8 INHIBITORS” (Merck Sharp & Dohme LLC, priority 2021, published 2022)
